The subject of assay [1] is primary human mesenchymal stem cells (hMSCs). The assay can be described thus: Tenocyte differentiation assay in hMSCs (SCXA staining). In kind it is cell-based. Conditions: given for EC50 of >100 μM; not defined in the method. An excerpt: Representative compounds were screened using primary human mesenchymal stem cells (hMSCs) to determine their ability to induce tenocyte differentiation (process by which tendon is developed).
Human Mesenchymal Stem Cell Culture: Primary human mesenchymal stem cells (hMSCs) were purchased from Lonza (Walkersville, Md.) and expanded in Mesenchymal Stem Cell Growth Media (Lonza). Cells between passage 3 and 6 were used for the experiments.
Cells were fixed using 4% formaldehyde (Electron Microscopy Sciences), and stained with anti-Sclerasis (anti-SCXA) antibodies (Abgent, San Diego, Calif.) [Webb S., et. al., Retinoic acid receptor signaling preserves tendon stem cell characteristics and prevents spontaneous differentiation in vitro, Stem Cell Research & Therapy 2016, 7:45] overnight at 4° C. […] Number of cells positive for SCXA in each well was quantified using the CellInsight CX5. Data was normalized to the average of 12 DMSO treated wells on the same plate using Dotmatics Studies module. The normalized averages (fold change over DMSO) of 3 replicate wells for each compound concentration were calculated. Due to solubility limitations of some of the compounds, values for higher doses were manually corrected and curve fitting and EC50 determinations were performed using Dotmatics Studies.

For assay [2], the system named is SW480 colon carcinoma cells. Briefly: Cell viability assay (CellTiter-Glo) in SW480 cells. It is filed as cell-based, human. Conditions: four days. How it is done:
Representative compounds were screened using the assay procedure to assess the effect on cell viability as described below.
SW480 colon carcinoma cells were transduced with a lentiviral vector expressing luciferase with a human Sp5 promoter consisting of a sequence of eight TCF/LEF binding sites. SW480 cells stably expressing the Sp5-Luc reporter gene and a hygromycin resistance gene were selected by treatment with 150 μg/mL of hygromycin for 7 days. These stably transduced SW480 cells were expanded in cell culture and used for all further screening activities.
For the Cell Viability Assays, the cells were plated at 2,000 cells/well in 384-well plates with a DMEM medium containing 1% fetal bovine serum, and 1% Penicillin-Streptomycin and incubated for […] at 37° C. and 5% CO2. Eight replicates of DMSO-treated cells served as controls and cells treated with compound were performed in duplicate.
After incubation, 10 μL of CellTiter-Glo (Promega) was added to each well allowed to incubate for approximately 12 minutes. This reagent “results in cell lysis and generation of a luminescent signal proportional to the amount of ATP present. The amount of ATP is directly proportional to the number of cells present in culture, in agreement with previous reports. The CellTiter-Glo® Assay generates a “glow-type” luminescent signal, produced by the luciferase reaction (Promega.com)”.

The test system of assay [3] is Wnt activity (Sp5-Luc reporter, TCF/LEF binding sites) in SW480 colon carcinoma cells. The assay can be described thus: Screening assay for Wnt activity: Sp5-Luc reporter gene assay in SW480 cells. In kind it is cell-based, human. The note with it: 36 to 48 hours. An excerpt:
The screening assay for Wnt activity is described as follows. Reporter cell lines can be generated by stably transducing cancer cell lines (e.g., colon cancer) or primary cells (e.g., IEC-6 intestinal cells) with a lentiviral construct that includes a Wnt-responsive promoter driving expression of the firefly luciferase gene.
SW480 colon carcinoma cells were transduced with a lentiviral vector expressing luciferase with a human Sp5 promoter consisting of a sequence of eight TCF/LEF binding sites. SW480 cells stably expressing the Sp5-Luc reporter gene and a hygromycin resistance gene were selected by treatment with 150 μg/mL of hygromycin for 7 days. These stably transduced SW480 cells were expanded in cell culture and used for all further screening activities. […] For Sp5-Luc reporter gene assays, the cells were plated at 4,000 cells/well in 384-well plates with a DMEM medium containing 1% fetal bovine serum, and 1% Penicillin-Streptomycin and incubated for 36 to 48 hours at 37° C. and 5% CO2. Following incubation, 15 μl of BriteLite Plus luminescence reagent (Perkin Elmer) was added to each well of the 384-well assay plates. The plates were placed on an orbital shaker for 2 min and then luminescence was quantified using the Envision (Perkin Elmer) plate reader. Readings were normalized to DMSO only treated cells, and normalized activities were utilized for EC50 calculations using the dose-response log (inhibitor) vs. response variable slope (four parameters) nonlinear regression feature available in GraphPad Prism 5.0 (or Dotmatics).
A general note: A reporter such as luciferase makes a cellular process visible.

Assay [4] deals with primary human fibroblasts derived from IPF patients (LL29 cells) treated with TGF-β1. The assay can be described thus: Inhibition of the fibrotic process: αSMA staining in TGF-β1 treated LL29 fibroblasts. The note with it: % cells positive for αSMA, TGF-β1 20 ng/mL, 4 days. It is filed as cell-based. The method, then:
Representative compounds were screened using primary human fibroblasts (derived from IPF patients) treated with TGF-β1 to determine their ability to inhibit the fibrotic process.
LL29 cells were plated at 1,500 cells/well in 70 μL/well F12 medium supplemented with 1% Fetal Bovine Serum. […] Wells treated with TGF-β1 and containing DMSO were used as positive control, and cells with only DMSO were negative control. […] Following incubation for 4 days, SYTOX green nucleic acid stain (Life Technologies [Thermo Fisher Scientific]) was added to the wells at a final concentration of 1 μM and incubated at room temperature for 30 min.

Assay [5] has as its system IL-6. The assay can be described thus: IL-6 inhibition in LPS-stimulated human PBMCs (HTRF). In kind it is cell-based. Conditions: PBMC; for EC50: IL-6, huPBMCs, LPS 50 ng/mL, 22 hours. The method, then:
Human Peripheral Blood Mononuclear Cells: Fresh Normal PB MNC (Catalog #PB001, AllCells, Alameda, Calif.) were shipped overnight at 4° C. and resuspended in Roswell Park Memorial Institute (RPMI) 1640 Medium, with GlutaMAX Supplement (Catalog #61870127, ThermoFisher Scientific, Waltham, Mass.) supplemented with 1% Penicillin-Streptomycin (Catalog #15140163, ThermoFisher Scientific, Waltham, Mass.) and 1% fetal bovine serum (FBS) (Catalog #16140089, ThermoFisher Scientific, Waltham, Mass.) assay media.
Compound Screening: Fresh normal human peripheral blood mononuclear cells (huPBMCs) were resuspended in 1% FBS-RPMI assay media with 1% Penicillin-Streptomycin 1% to a cell concentration of 1×10e6 cells/mL. […] 50 ng/mL of Lipopolysaccharides from Escherichia coli 0111:B4 (Catalog #L5293-2ML, Sigma-Aldrich, St. Louis, Mo.) was added after 2 hours and cells were incubated for another 22 hours at 37° C.-5% CO2. After 22 hour incubation, a mixture of anti-IL6 XL665 and anti-IL-6 Cryptate diluted in reconstitution buffer (Catalog #62IL6PEC, Cisbio Inc., Bedford, Mass.) was added to each well. Following incubation for 3 hours at room temperature, Homogeneous Time-Resolved Fluorescence (HTRF) was measured using the Envision (Perkin Elmer, Shelton, Conn.) at 665 nm and […]. The ratio of fluorescence at 665 nm to 620 nm was used as a readout for IL-6 quantification. All samples were processed in duplicate. Readings were normalized to DMSO treated cells and normalized activities were utilized for EC50 calculations. EC50 was determined using software generated by Dotmatics Limited (Windhill Bishops Stortford Herts, UK) using the Levenberg-Marquardt 4 parameter fitting procedure with finite different gradients.

As to “5-(1,2-Dimethyl-1H-imidazol-5-yl)-N-(2-methylthiazol-5-yl)-1H-indazole-3-carboxamide [Compound 139]”, the “percent value in parentheses beside EC50 >100” value (from here on “percent value”) in assay [1] is “(21.2%)”.
As a reminder, the EC50 is the concentration giving half of the maximal effect. Broadly, the inhibition is the drop in the measured response relative to a control, in per cent. `Cc1ncc(-c2ccc3[nH]nc(C(=O)NC4CCN(CC(C)(C)F)CC4)c3c2)n1C` [Compound 42, 5-(1,2-Dimethyl-1H-imidazol-5-yl)-N-(1-(2-fluoro-2-methylpropyl)piperidin-4-yl)-1H-indazole-3-carboxamide]: the EC50 in assay [2] (Homo sapiens, 96 h) was over 10000 nM; in assay [3] (Homo sapiens) it was 507 nM; in assay [4] (Homo sapiens, Fibroblast, 96 h) it was 1360 nM; in assay [5] it was over 10000 nM. Moreover, the inhibition at 10 µM in assay [5] (read-out: percent inhibition at 10 μM) is 10.4%.
On to `C[C@H]1C[C@H](NC(=O)c2n[nH]c3ccc(-c4cnn(C)c4)cc23)CCN1CC(C)(C)F` [Compound 44, N-((2S,4R)-1-(2-fluoro-2-methylpropyl)-2-methylpiperidin-4-yl)-5-(1-methyl-1H-pyrazol-4-yl)-1H-indazole-3-carboxamide], for which the EC50 is 1520 nM in assay [2] (Homo sapiens, 96 h); 279 nM in assay [3] (Homo sapiens); 199 nM in assay [4] (Homo sapiens, Fibroblast, 96 h); 1030 nM in assay [5].
`O=C(Nc1ccc(F)cc1)c1n[nH]c2ccc(-c3cnc4n3CCNC4)cc12` [Compound 52, N-(4-Fluorophenyl)-5-(5,6,7,8-tetrahydroimidazo[1,2-a]pyrazin-3-yl)-1H-indazole-3-carboxamide] had an EC50 in assay [4] (Homo sapiens, Fibroblast, 96 h) of 540 nM.
For `CC(C)(F)CN1CCC(n2cc(-c3ccc4[nH]nc(C(=O)Nc5ccc(OC(F)F)cc5)c4c3)cn2)CC1` [Compound 61, N-(4-(difluoromethoxy)phenyl)-5-(1-(1-(2-fluoro-2-methylpropyl)piperidin-4-yl)-1H-pyrazol-4-yl)-1H-indazole-3-carboxamide], the values for the EC50 in assay [2], in assay [3] and in assay [4] were over 10000 nM, over 10000 nM and 9 nM, respectively.
Take `Cc1ncc(-c2ccc3[nH]nc(C(=O)Nc4ccc(OC5CCN(C)CC5)cc4)c3c2)s1` [Compound 82, N-(4-((1-Methylpiperidin-4-yl)oxy)phenyl)-5-(2-methylthiazol-5-yl)-1H-indazole-3-carboxamide]: in assay [1], the “percent value” value was “(2.9%)”.
On to `Cn1cc(-c2cc(F)c3[nH]nc(C(=O)NC4CCN(CC(F)F)CC4)c3c2)cn1` [Compound 101, N-(1-(2,2-Difluoroethyl)piperidin-4-yl)-7-fluoro-5-(1-methyl-1H-pyrazol-4-yl)-1H-indazole-3-carboxamide], for which the “percent value” value in assay [1] is “(33.0%)”.
Consider `CN1CCC(Oc2ccc(NC(=O)c3n[nH]c4c(F)cc(-c5cnn(C)c5)cc34)cn2)CC1` [Compound 129, 7-Fluoro-5-(1-methyl-1H-pyrazol-4-yl)-N-(6-((1-methylpiperidin-4-yl)oxy)pyridin-3-yl)-1H-indazole-3-carboxamide], for which the “percent value” value in assay [1] is listed as “(13.0%)”.
Same read-out and setting: for `Cc1cc(NC(=O)c2n[nH]c3ccc(-c4cnn(C5CCN(C)CC5)c4)cc23)sn1` [Compound 143, N-(3-Methylisothiazol-5-yl)-5-(1-(1-methylpiperidin-4-yl)-1H-pyrazol-4-yl)-1H-indazole-3-carboxamide] the value was “(23.0%)”; for `CN1CCN(c2cccc(NC(=O)c3n[nH]c4cc(F)c(-c5cnn(C)c5)cc34)c2)CC1` [Compound 149, 6-Fluoro-5-(1-methyl-1H-pyrazol-4-yl)-N-(3-(4-methylpiperazin-1-yl)phenyl)-1H-indazole-3-carboxamide], “(36.0%)”.
The same measure, in the same setting: for `CN1CCC(Oc2cccc(NC(=O)c3n[nH]c4cc(F)c(-c5cnn(C)c5)cc34)c2)CC1` [Compound 151, 6-Fluoro-5-(1-methyl-1H-pyrazol-4-yl)-N-(3-((1-methylpiperidin-4-yl)oxy)phenyl)-1H-indazole-3-carboxamide] the value was “(3.5%)”; for `Cn1cc(-c2cc3c(C(=O)Nc4cccc(OCCN5CCCC5)c4)n[nH]c3cc2F)cn1` [Compound 154, 6-Fluoro-5-(1-methyl-1H-pyrazol-4-yl)-N-(3-(2-(pyrrolidin-1-yl)ethoxy)phenyl)-1H-indazole-3-carboxamide], “(21.0%)”.

The values are drawn from patent publication US11713320B2, “5-heteroaryl substituted indazole-3-carboxamides and preparation and use thereof” (BioSplice Therapeutics, Inc., priority 2018, dated 2023).
